The data set can be described thus: Pharmacokinetics, CF Phase 2 preliminary analysis. Format: in vivo, human. As to conditions: for Cmax / AUC(0-t): both sexes, human, in vivo, oral; for AUC(0-t): read-out: AUC0-24. An excerpt: 3-[5-(2-Fluoro-phenyl)-[1,2,4]oxadiazol-3-yl]-benzoic acid was provided in a formulation described herein.
The 3-[5-(2-fluoro-phenyl)-[1,2,4]oxadiazol-3-yl]-benzoic acid interim PK parameters from these 15 patients are described in Table 17.

Where [1] appears, read: 8 mg/kg, Cycle 1 lower dose 4, 4, 8 mg/kg, Day 1, N = 15, mean.
Where [2] appears, read: 8 mg/kg, Cycle 1 lower dose 4, 4, 8 mg/kg, Day 14, N = 15, mean.
The mark [3] stands for this setting: 20 mg/kg, Cycle 2 higher dose 10, 10, 20 mg/kg, Day 1, N = 15, mean.
Where [4] appears, read: 20 mg/kg, Cycle 2 higher dose 10, 10, 20 mg/kg, Day 14, N = 15, mean.

Molecules are shown by their SMILES. Where two headings read alike, the source gives them in different places.

`O=C(O)c1cccc(-c2noc(-c3ccccc3F)n2)c1` [3-[5-(2-fluoro-phenyl)-[1,2,4]oxadiazol-3-yl]-benzoic acid]: the “Differences in PK parameters by gender” value (15 CF patients) is on record as “No differences”. Further, the Cmin runs as follows: (Cycle 1 lower dose 4, 4, 8 mg/kg, Day 1, N = 15, mean) 1600 ng/mL; (Cycle 1 lower dose 4, 4, 8 mg/kg, Day 14, N = 15, mean) 1900 ng/mL; (Cycle 2 higher dose 10, 10, 20 mg/kg, Day 1, N = 15, mean) 5000 ng/mL; (Cycle 2 higher dose 10, 10, 20 mg/kg, Day 14, N = 15, mean) 6500 ng/mL. The Cmax is, setting by setting: under setting [1], 16000 ng/mL; under setting [2], 13000 ng/mL; under setting [3], 41000 ng/mL; under setting [4], 36000 ng/mL. Moreover, the AUC(0-t) by setting is: under setting [1], 145 µg·h/mL; under setting [2], 124 µg·h/mL; under setting [3], 435 µg·h/mL; under setting [4], 417 µg·h/mL.

The term Cmax denotes the peak of the concentration-time curve.
